Consider eleven molecules from US11541056B2, “3-hydroxy-N-(3-(7H-pyrrolo[2,3-d]pyrimidin-4-yl)phenyl)pyrrolidine-1-carboxamide derivatives” (NOVARTIS AG, priority 2018, dated 2023).

The target in the assay is T1, BTK-GFP (Homo sapiens, UniProt Q06187+Q96SW2).
T1 construct: the BTK open reading frame (ORF) was first shuttled from a pcDNA-DEST40-BTK vector (Invitrogen library ID INV_20090504v1); expressed in transfected cells; host or cells: HEK293A cells (Invitrogen R70507), lentiviral transduction with pLenti6-BTK-GFP-Ires-RFP, blasticidin-selected
T1 sequence (Q06187 whole entry): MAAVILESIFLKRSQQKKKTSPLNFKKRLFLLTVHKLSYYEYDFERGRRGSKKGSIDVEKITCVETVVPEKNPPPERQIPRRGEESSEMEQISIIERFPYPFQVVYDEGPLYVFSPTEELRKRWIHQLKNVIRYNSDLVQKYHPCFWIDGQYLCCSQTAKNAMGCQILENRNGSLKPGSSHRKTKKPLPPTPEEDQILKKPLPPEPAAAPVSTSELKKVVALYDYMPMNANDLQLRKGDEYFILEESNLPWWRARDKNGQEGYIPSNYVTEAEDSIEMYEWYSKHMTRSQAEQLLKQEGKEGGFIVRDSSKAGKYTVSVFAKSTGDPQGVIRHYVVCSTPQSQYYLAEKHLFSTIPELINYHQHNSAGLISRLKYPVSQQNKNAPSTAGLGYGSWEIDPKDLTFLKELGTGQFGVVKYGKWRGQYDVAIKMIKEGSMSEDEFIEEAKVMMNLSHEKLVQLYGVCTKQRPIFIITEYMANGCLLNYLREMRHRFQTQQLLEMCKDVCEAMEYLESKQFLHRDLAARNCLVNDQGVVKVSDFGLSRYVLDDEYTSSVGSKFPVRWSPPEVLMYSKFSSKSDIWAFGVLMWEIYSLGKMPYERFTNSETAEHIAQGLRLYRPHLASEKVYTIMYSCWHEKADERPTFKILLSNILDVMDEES
T1 sequence (Q96SW2 whole entry): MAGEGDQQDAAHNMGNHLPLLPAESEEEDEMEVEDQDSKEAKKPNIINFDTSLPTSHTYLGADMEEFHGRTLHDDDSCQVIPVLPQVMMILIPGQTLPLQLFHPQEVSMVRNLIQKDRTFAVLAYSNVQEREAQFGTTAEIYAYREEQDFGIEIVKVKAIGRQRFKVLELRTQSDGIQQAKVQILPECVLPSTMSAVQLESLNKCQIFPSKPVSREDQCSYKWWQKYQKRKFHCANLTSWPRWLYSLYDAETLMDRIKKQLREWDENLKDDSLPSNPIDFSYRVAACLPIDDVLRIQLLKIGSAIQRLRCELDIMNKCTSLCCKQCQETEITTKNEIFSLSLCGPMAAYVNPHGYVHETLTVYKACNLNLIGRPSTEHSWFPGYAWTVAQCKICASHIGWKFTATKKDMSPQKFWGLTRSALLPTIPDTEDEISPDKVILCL
T1 sequence (Q16531 whole entry partner): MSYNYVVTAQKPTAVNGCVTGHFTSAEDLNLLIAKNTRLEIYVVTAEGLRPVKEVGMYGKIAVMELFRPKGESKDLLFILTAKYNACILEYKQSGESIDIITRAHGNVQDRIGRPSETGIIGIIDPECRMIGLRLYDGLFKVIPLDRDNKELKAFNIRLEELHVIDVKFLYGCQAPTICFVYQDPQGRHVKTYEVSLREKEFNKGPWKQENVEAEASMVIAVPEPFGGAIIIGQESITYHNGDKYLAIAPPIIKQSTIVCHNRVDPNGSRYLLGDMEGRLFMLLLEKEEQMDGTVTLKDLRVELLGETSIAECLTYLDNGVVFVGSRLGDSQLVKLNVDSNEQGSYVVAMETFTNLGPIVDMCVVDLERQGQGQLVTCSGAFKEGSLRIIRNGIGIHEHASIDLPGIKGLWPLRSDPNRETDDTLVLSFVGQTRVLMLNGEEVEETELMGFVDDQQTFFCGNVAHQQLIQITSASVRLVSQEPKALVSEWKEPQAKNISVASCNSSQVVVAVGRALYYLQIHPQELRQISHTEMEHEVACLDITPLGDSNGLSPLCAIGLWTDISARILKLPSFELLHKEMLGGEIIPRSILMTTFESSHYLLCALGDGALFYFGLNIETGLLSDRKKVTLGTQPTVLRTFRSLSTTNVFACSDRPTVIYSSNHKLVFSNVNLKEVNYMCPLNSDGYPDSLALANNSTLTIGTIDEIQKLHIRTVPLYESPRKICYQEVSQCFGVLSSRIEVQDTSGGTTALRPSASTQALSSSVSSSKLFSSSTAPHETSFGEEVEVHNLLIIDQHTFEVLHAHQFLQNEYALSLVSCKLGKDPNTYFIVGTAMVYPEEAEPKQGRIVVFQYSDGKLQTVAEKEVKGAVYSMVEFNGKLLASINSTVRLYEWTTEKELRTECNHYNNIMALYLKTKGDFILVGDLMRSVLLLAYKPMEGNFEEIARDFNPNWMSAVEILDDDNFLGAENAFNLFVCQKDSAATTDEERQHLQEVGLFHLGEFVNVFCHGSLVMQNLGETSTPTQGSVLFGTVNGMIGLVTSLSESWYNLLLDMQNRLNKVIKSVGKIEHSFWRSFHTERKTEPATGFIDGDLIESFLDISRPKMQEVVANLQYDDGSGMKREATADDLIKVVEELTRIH
Nature of the assay: BTK-GFP protein abundance flow cytometry assay in HEK293A cells. It counts as cell-based. As to conditions: 24 h; for BTK deg Amax %: % protein remaining at concentration of maximum degradation; for DC50: concentration at which 50% maximal degradation was observed. The protocol: Compounds of the invention were tested in the following cellular assays. The terms in Table 1 are defined as follows: DC50 refers to the concentration at which 50% maximal degradation was observed; deg Amax is the extent of degradation and the value refers to the % protein remaining at the concentration at which maximum degradation is seen; Prol GI50 refers to the proliferation data and defines the concentration at which 50% growth inhibition was observed compared to the vehicle treated control at the end of the incubation time. TMD8 cells are BTK dependent and OCI-LY3 cells are BTK independent.
BTK-GFP and IKZF3-GFP Protein Abundance Flow Cytometry Assay in HEK293A Cells:
Degradation of BTK or IKZF3 was measured in HEK293A cells (Invitrogen R70507) expressing either BTK-GFP and RFP or IKZF3-GFP and RFP from a stably integrated bicistronic BTK-GFP-iresRFP or IKZF3-GFP-iresRFP construct, respectively. Reduction of the GFP signal measured by flow cytometry served as readout for BTK or IKZF3 degradation after degrader treatment.
Stable HEK293A-BTK-GFP-iresRFP cells were maintained in complete growth medium (DMEM high Glucose+10% FCS+1% L-Glutamine+1% NEAA+1% NaPyr.) with passaging performed twice per week. On Day 0, HEK293A-BTK-GFP-iresRFP or HEK293A-IKZF3-GFP-iresRFP and HEK293A-iresRFP cells were seeded at 10,000 cells/well in a 96-well microtiter plate in 260 μl complete medium. On Day 1, cells were treated in duplicate with 10-point 1:3 dilution series of compound using the HP D300 Digital Dispenser (Tecan). DMSO concentrations were normalized across the plate to 0.1%. On Day 2, after 24 h of incubation at 37° C., treatment media was discarded, cells rinsed with 100 ul/well PBS and then detached using 40 ul trypsin/well for 5 min. Trypsin was neutralized with 100 ul/well PBS+20% FCS). Flow cytometry was performed on the samples using the BD FACS CANTO II (Becton Dickinson). Cell identification was then performed using forward (FSC) vs. side scatter (SSC) plots. Single cell discrimination is performed using SSC-Width (SSC-W) vs. SSC-Height (SSC-H) plots. Median GFP values for 5,000 single cells are used to determine BTK levels. Median GFP values from HEK293A-iresRFP are used as a background signal and thus defining 0% BTK signal. Median GFP values from DMSO treated HEK293A-BTK-GFP-iresRFP or HEK293A-IKZF3-GFP-iresRFP are used to define 100% BTK signal for subsequent DC50 curves (concentration at 50% BTK degradation). GFP and RFP are read in the channels called FITC and PE, respectively.
Concentration response curves plotting relative reduction of the GFP signal (measured by flow cytometry) versus 10 compound concentrations (starting concentration 10 μM, 3 fold dilution steps) of the compounds allowed generation of DC50 values.
In general terms: Flow cytometry measures light scatter and fluorescence of single cells or particles in a stream.

Consider `COc1ccc(C(=O)N2CCC3(CCN(Cc4ccc(-c5cc6c(-c7cc(F)cc(NC(=O)N8C[C@@H](CC(C)C)[C@H](O)C8)c7C)ncnc6[nH]5)cc4)CC3)CC2)cc1N1CCC(=O)NC1=O` (racemic) [Compound 5, trans-rac-N-(3-(6-(4-((9-(3-(2,4-Dioxotetrahydropyrimidin-1(2H)-yl)-4-methoxybenzoyl)-3,9-diazaspiro[5.5]undecan-3-yl)methyl)phenyl)-7H-pyrrolo[2,3-d]pyrimidin-4-yl)-5-fluoro-2-methylphenyl)-3-hydroxy-4-isobutylpyrrolidine-1-carboxamide], for which the “BTK deg Amax %” value was determined as 4% and half-maximal degradation (DC50) was put at 4.9 nM.
On to `COc1ccc(C(=O)N2CCC3(CCN(Cc4ccc(-c5cc6c(-c7cc(F)cc(NC(=O)N8C[C@@H](CC(C)C)[C@H](O)C8)c7C)ncnc6[nH]5)cc4)CC3)CC2)cc1N1CCC(=O)NC1=O` [Compound 1, (3S,4R)—N-(3-(6-(4-((9-(3-(2,4-Dioxotetrahydropyrimidin-1(2H)-yl)-4-methoxybenzoyl)-3,9-diazaspiro[5.5]undecan-3-yl)methyl)phenyl)-7H-pyrrolo[2,3-d]pyrimidin-4-yl)-5-fluoro-2-methylphenyl)-3-hydroxy-4-isobutylpyrrolidine-1-carboxamide], for which the “BTK deg Amax %” value was 15% and the DC50 (commonly the midpoint of the concentration-degradation curve) was 164 nM.
Take `COc1ccc(C(=O)N2CCC(OCCN3CCN(Cc4ccc(-c5cc6c(-c7cc(F)cc(NC(=O)N8C[C@H](CC(C)C)[C@@H](O)C8)c7C)ncnc6[nH]5)cc4)CC3)CC2)cc1N1CCC(=O)NC1=O` [Compound 2, (3R,4S)—N-(3-(6-(4-((4-(2-((1-(3-(2,4-Dioxotetrahydropyrimidin-1 (2H)-yl)-4-methoxybenzoyl)piperidin-4-yl)oxy)ethyl)piperazin-1-yl)methyl)phenyl)-7H-pyrrolo[2,3-d]pyrimidin-4-yl)-5-fluoro-2-methylphenyl)-3-hydroxy-4-isobutylpyrrolidine-1-carboxamide]: the “BTK deg Amax %” value worked out at 2% and the DC50 turned out to be 1.4 nM.
In the same order, the values of `COc1ccc(C(=O)N2CCC3(CCN(Cc4ccc(-c5cc6c(-c7cc(F)cc(NC(=O)N8C[C@H](CC(C)C)[C@@H](O)C8)c7C)ncnc6[nH]5)cc4)CC3)CC2)cc1N1CCC(=O)NC1=O` [Compound 6, (3R,4S)—N-(3-(6-(4-((9-(3-(2,4-Dioxotetrahydropyrimidin-1(2H)-yl)-4-methoxybenzoyl)-3,9-diazaspiro[5.5]undecan-3-yl)methyl)phenyl)-7H-pyrrolo[2,3-d]pyrimidin-4-yl)-5-fluoro-2-methylphenyl)-3-hydroxy-4-isobutylpyrrolidine-1-carboxamide] are 6.2% and 3.4 nM.
Take `COc1ccc(C(=O)N2CCC(OC3CCN(Cc4ccc(-c5cc6c(-c7cc(F)cc(NC(=O)N8C[C@H](CC(C)C)[C@@H](O)C8)c7C)ncnc6[nH]5)cc4)CC3)CC2)cc1N1CCC(=O)NC1=O` [Compound 8, (3R,4S)—N-(3-(6-(4-((4-((1-(3-(2,4-Dioxotetrahydropyrimidin-1(2H)-yl)-4-methoxybenzoyl)piperidin-4-yl)oxy)piperidin-1-yl)methyl)phenyl)-7H-pyrrolo[2,3-d]pyrimidin-4-yl)-5-fluoro-2-methylphenyl)-3-hydroxy-4-isobutylpyrrolidine-1-carboxamide]: the “BTK deg Amax %” value was 4.5% and half-maximal degradation (DC50) was put at 1 nM.
With `COc1ccc(C(=O)N2CCC(CN3CCC(Oc4ccc(-c5cc6c(-c7cc(F)cc(NC(=O)N8C[C@H](CC(C)C)[C@@H](O)C8)c7C)ncnc6[nH]5)cc4)CC3)CC2)cc1N1CCC(=O)NC1=O` [Compound 11, (3R,4S)—N-(3-(6-(4-((1-((1-(3-(2,4-Dioxotetrahydropyrimidin-1 (2H)-yl)-4-methoxybenzoyl)piperidin-4-yl)methyl)piperidin-4-yl)oxy)phenyl)-7H-pyrrolo[2,3-d]pyrimidin-4-yl)-5-fluoro-2-methylphenyl)-3-hydroxy-4-isobutylpyrrolidine-1-carboxamide], the “BTK deg Amax %” value is 2.3% and it took 0.6 nM to reach half-maximal degradation (DC50).
In the same order, the values of `COc1ccc(C(=O)N2CCC(CN3CCN(Cc4ccc(-c5cc6c(-c7cc(F)cc(NC(=O)N8C[C@H](CC(C)C)[C@@H](O)C8)c7C)ncnc6[nH]5)cc4)CC3)CC2)cc1N1CCC(=O)NC1=O` [Compound 12, (3R,4S)—N-(3-(6-(4-((4-((1-(3-(2,4-Dioxotetrahydropyrimidin-1(2H)-yl)-4-methoxybenzoyl)piperidin-4-yl)methyl)piperazin-1-yl)methyl)phenyl)-7H-pyrrolo[2,3-d]pyrimidin-4-yl)-5-fluoro-2-methylphenyl)-3-hydroxy-4-isobutylpyrrolidine-1-carboxamide] are 4.3% and 0.7 nM.
In the same order, the values of `COc1ccc(C(=O)N2CCC(OC3CCN(CCc4ccc(-c5cc6c(-c7cc(F)cc(NC(=O)N8C[C@H](CC(C)C)[C@@H](O)C8)c7C)ncnc6[nH]5)cc4)CC3)CC2)cc1N1CCC(=O)NC1=O` [Compound 13, (3R,4S)—N-(3-(6-(4-(2-(4-((1-(3-(2,4-Dioxotetrahydropyrimidin-1(2H)-yl)-4-methoxybenzoyl)piperidin-4-yl)oxy)piperidin-1-yl)ethyl)phenyl)-7H-pyrrolo[2,3-d]pyrimidin-4-yl)-5-fluoro-2-methylphenyl)-3-hydroxy-4-isobutylpyrrolidine-1-carboxamide] are 2.9% and 0.5 nM.
Turning to `COc1ccc(C(=O)N2CCC3(CCN(CCc4ccc(-c5cc6c(-c7cc(F)cc(NC(=O)N8C[C@H](CC(C)C)[C@@H](O)C8)c7C)ncnc6[nH]5)cc4)CC3)CC2)cc1N1CCC(=O)NC1=O` [Compound 15, (3R,4S)—N-(3-(6-(4-(2-(9-(3-(2,4-Dioxotetrahydropyrimidin-1(2H)-yl)-4-methoxybenzoyl)-3,9-diazaspiro[5.5]undecan-3-yl)ethyl)phenyl)-7H-pyrrolo[2,3-d]pyrimidin-4-yl)-5-fluoro-2-methylphenyl)-3-hydroxy-4-isobutylpyrrolidine-1-carboxamide], the “BTK deg Amax %” value is 4% and half-maximal degradation (DC50) was put at 1.8 nM.
With `COc1ccc(C(=O)N2CCC3(CCN(CCc4ccc(-c5cc6c(-c7cc(F)cc(NC(=O)N8C[C@@H](CC(C)C)[C@H](O)C8)c7C)ncnc6[nH]5)cc4)CC3)CC2)cc1N1CCC(=O)NC1=O` [Compound 19, (3S,4R)—N-(3-(6-(4-(2-(9-(3-(2,4-dioxotetrahydropyrimidin-1(2H)-yl)-4-methoxybenzoyl)-3,9-diazaspiro[5.5]undecan-3-yl)ethyl)phenyl)-7H-pyrrolo[2,3-d]pyrimidin-4-yl)-5-fluoro-2-methylphenyl)-3-hydroxy-4-isobutylpyrrolidine-1-carboxamide], the “BTK deg Amax %” value worked out at 13% and the DC50 stood at 85.5 nM.
As to `COc1ccc(C(=O)N2CCC(CCN3CCC(OCc4ccc(-c5cc6c(-c7cc(F)cc(NC(=O)N8C[C@H](CC(C)C)[C@@H](O)C8)c7C)ncnc6[nH]5)cc4)CC3)CC2)cc1N1CCC(=O)NC1=O` [Compound 22, (3R,4S)—N-(3-(6-(4-(((1-(2-(1-(3-(2,4-Dioxotetrahydropyrimidin-1 (2H)-yl)-4-methoxybenzoyl)piperidin-4-yl)ethyl)piperidin-4-yl)oxy)methyl)phenyl)-7H-pyrrolo[2,3-d]pyrimidin-4-yl)-5-fluoro-2-methylphenyl)-3-hydroxy-4-isobutylpyrrolidine-1-carboxamide], the “BTK deg Amax %” value is reported as 1.4% and it took 1.4 nM to reach half-maximal degradation (DC50).
